Results from ChEMBL document CHEMBL3525934 (Drug Metab Dispos, 2013).

Key:
Assay type in all cases: ADME
[1] = test system: Liver microsome; assay: Drug level in pooled human liver microsomes treated with clozapine at 100 uM after 30 mins by HPLC analysis; conditions: 0.5 h
[2] = substrate: CN1CCN(C2=Nc3cc(Cl)ccc3Nc3ccccc32)CC1; assay: Drug metabolism in supersomes expressing human recombinant CYP2D6 assessed as enzyme-mediated clozapine N-oxide metabolite formation after 15 mins by Michaelis-Menten equation analysis
[3] = substrate: CN1CCN(C2=Nc3cc(Cl)ccc3Nc3ccccc32)CC1; assay: Drug metabolism in supersomes expressing human recombinant CYP2D6 assessed as enzyme-mediated N-demethyl clozapine metabolite formation after 15 mins by Michaelis-Menten equation analysis
[4] = substrate: CN1CCN(C2=Nc3cc(Cl)ccc3Nc3ccccc32)CC1; assay: Drug metabolism in supersomes expressing human recombinant CYP2D6 assessed as enzyme-mediated total GSH conjugate formation after 15 mins by Michaelis-Menten equation analysis

C[N+]1([O-])CCN(C2=Nc3cc(Cl)ccc3Nc3ccccc32)CC1
Drug metabolism [1]: metabolite_detected

NCCNC1=Nc2cc(Cl)ccc2Nc2ccccc21
Drug metabolism [1]: metabolite_detected

CN1CCN(C2=Nc3cc(Cl)c(O)cc3Nc3ccccc32)CC1
Drug metabolism [1]: metabolite_detected

CN1CCN(C2=Nc3c(ccc(Cl)c3O)Nc3ccccc32)CC1
Drug metabolism [1]: metabolite_detected

CNCCNC1=Nc2cc(Cl)ccc2Nc2ccccc21
Drug metabolism [1]: metabolite_detected

Clc1ccc2c(c1)N=C(N1CCNCC1)c1ccccc1N2 [N-DESMETHYLCLOZAPINE]
Drug metabolism [1]: metabolite_detected

B1: Cytochrome P450 2D6 (Homo sapiens) (protein)
chain: MGLEALVPLAVIVAIFLLLVDLMHRRQRWAARYPPGPLPLPGLGNLLHVDFQNTPYCFDQLRRRFGDVFSLQLAWTPVVVLNGLAAVREALVTHGEDTADRPPVPITQILGFGPRSQGVFLARYGPAWREQRRFSVSTLRNLGLGKKSLEQWVTEEAACLCAAFANHSGRPFRPNGLLDKAVSNVIASLTCGRRFEYDDPRFLRLLDLAQEGLKEESGFLREVLNAVPVLLHIPALAGKVLRFQKAFLTQLDELLTEHRMTWDPAQPPRDLTEAFLAEMEKAKGNPESSFNDENLRIVVADLFSAGMVTTSTTLAWGLLLMILHPDVQRRVQQEIDDVIGQVRRPEMGDQAHMPYTTAVIHEVQRFGDIVPLGVTHMTSRDIEVQGFRIPKGTTLITNLSSVLKDEAVWEKPFRFHPEHFLDAQGHFVKPEAFLPFSAGRRACLGEPLARMELFLFFTSLLQHFSFSVPTGQPRPSHHGVFAFLVSPSPYELCAVPR
Km [2]: 84.1 µM | Km [3]: 25.3 µM | Km [4]: 21.9 µM
